# Earlier results as cited in article PMC10090446, “Population pharmacokinetic analysis and dosing optimization of polymyxin B in critically ill patients” (Frontiers in Pharmacology, 2023).
# Positions of bridges follow the written chain, without caps; N, C: chain ends. Non-standard residues stand in square brackets, D forms with d. Residues, ends and D or L forms follow the SMILES beside them. *: point of attachment. X1 = CC[C@H](C)CCCCC(=O)*; Dab = NCC[C@H](N)C(=O)O
# Conditions: critically ill patients; ref Ye et al., 2022; cited from earlier work
# Text: Over the last decade, more pathogenic bacteria have developed resistance, making many first-line antibiotics ineffective against infections ([Mohapatra et al., 2021]). Polymyxins were used extensively as salvage therapeutic agents for combating multidrug-resistant gram-negative bacteria (MDR-GNB) infections ([Falagas et al., 2021]). […] These specific physiolog ...
structure (smiles),measurement,value
CC[C@H](C)CCCCC(=O)N[C@@H](CCN)C(=O)N[C@H](C(=O)N[C@@H](CCN)C(=O)N[C@H]1CCNC(=O)[C@H]([C@@H](C)O)NC(=O)[C@H](CCN)NC(=O)[C@H](CCN)NC(=O)[C@H](CC(C)C)NC(=O)[C@@H](Cc2ccccc2)NC(=O)[C@H](CCN)NC1=O)[C@@H](C)O [polymyxin B] (X1-[Dab]T[Dab][Dab][Dab][dF]L[Dab][Dab]T; lactam 4-C),rate of reaching the standard polymyxin B exposure AUC at a typical clinical dose,approximately 54.3%
